# Results reported in patent US6153419A, “Method for quantitative determination of 1,5-anhydroglucitol” (Kyowa Hakko Kogyo Co., Ltd., priority 1996, dated 2000).
# Read-outs that look alike come from different tables or passages of the source.
# Assays:
# Type in all cases: biochemical
# [1] = tested on: trehalase derived from Rhodococcus globerulus ATCC 14898; experiment: Test Example 1: specificity of inhibition by 1,5-anhydroglucitol; details: for Inhibition (%): test sugar 1 mM, 100 mM phosphate buffer pH 7.0, 10 mg/ml trehalose, 10 minutes
# Procedure: (§1) A reaction mixture was prepared by adding 10 mU/ml trehalase prepared in Reference Example 3, 0.81 mg/ml 4-aminoantipyrine, 1 mg/ml EMSE, 30 U/ml glucose oxidase, 10 U/ml peroxidase, and 1 mM test sugar shown in Table 4 to 100 mM phosphate buffer (pH 7.0). After addition of 10 mg/ml trehalose to the reaction mixture and stirring, the change in absorbance at 550 nm was measured with a spectrophotometer.
# [2] = tested on: trehalase derived from Nocardia sp. NK-2067; experiment: Effect of metal chelating agents, enzyme inhibitors and metal ions on the novel trehalase
# Procedure: The effect of various metal chelating agents, enzyme inhibitors and metal ions on the enzyme was investigated at a concentration of 1 mM.
# (§2) To 1 ml of the substrate solution is added 0.02 ml of an enzyme solution, and reaction is carried out at 37° C. for 30 minutes. The reaction is stopped by heating at 100° C. for 3 minutes. To the reaction mixture is added 1 ml of the color-producing reagent, and reaction is carried out at 37° C. for 20 minutes, followed by measurement of the absorbance at 500 nm. A control solution is prepared by using water instead of the enzyme solution in the above procedure.
# [3] = tested on: trehalase derived from Nocardia sp. NK-2067; experiment: Substrate and inhibitor affinity by Lineweaver-Burk plot; details: pH 5.5, Lineweaver-Burk plot
# Procedure: The Km value of the enzyme for trehalose at pH 5.5 as determined by Lineweaver-Burk plot [J. Am. Chem. Soc., 56, 658 (1934)] is 6.7 mM.
# [4] = tested on: trehalase derived from Nocardia sp. NK-2067; experiment: Substrate specificity of the novel trehalase (activity on various substrates); details: for Relative activity (%): substrate 1.75 mM, 100 mM phosphate buffer pH 5.5, activity on trehalose defined as 100
# Procedure: The activity of the enzyme on various substrates was measured at a substrate concentration of 1.75 mM in 100 mM phosphate buffer (pH 5.5). The results are shown in Table 1 as relative activities, the activity on trehalose being defined as 100.
# The enzyme activity is measured in the following manner.
# (§3) Trehalose is dissolved in 100 mM phosphate buffer (pH 5.5) to give a concentration of 12.5 mM.
# (§4) Glucose oxidase (Toyobo Co., Ltd., Grade II), peroxidase (Toyobo Co., Ltd., Grade III), 4-aminoantipyrine and phenol are dissolved in water to give final concentrations of 0.04 mg/ml, 0.04 mg/ml, 1.2 mM and 21 mM, respectively.
# as §2
# (§5) The trehalase activity is expressed by unit, one unit being defined as that amount of the enzyme which will hydrolyze 1 μmol of trehalose at 37° C. in one minute. The activity per milliliter of enzyme solution (U/ml) can be calculated from the net difference in absorbance (enzyme solution-control solution) according to the following equation. [formula]
# [5] = tested on: trehalase derived from Nocardia sp. NK-2067; experiment: Inhibition specificity of the novel trehalase to various sugars, trehalose as substrate; details: sugar at 1.75 mM
# Procedure: The enzyme was also examined for inhibition specificity to various sugars at 1.75 mM using trehalose as a substrate.
# as §3, §4, §2, §5
# [6] = tested on: trehalase derived from Nocardia sp. NK-2067; experiment: Example 6: inhibition of trehalase, calibration curve; details: pH 7.0, FIG. 9
# Procedure: as §1, with “2,” for “3,”, “a sample containing 1,5-anhydroglucitol at a varied concentration” for “1 mM test sugar shown in Table 4”, “increase” for “change”
# The same procedure as in Example 3 was repeated, except that trehalase derived from Nocardia sp. prepared in Example 5 was used.
# [7] = tested on: trehalose phosphorylase derived from Catellatospora ferruginea FERM BP-4329; experiment: Example 1: inhibition of the decomposition activity of trehalose phosphorylase; details: pH 7.0, FIG. 5
# Procedure: A reaction mixture was prepared by adding 10 mU/ml trehalose phosphorylase derived from Catellatospora ferruginea prepared in Reference Example 1, 2.5 U/ml […] (Beckman Instruments, Inc.), 5 U/ml glucose-6-phosphate dehydrogenase (Sigma Chemical Co.), 10 mM NADP, and a sample containing 1,5-anhydroglucitol at a varied concentration to 100 mM phosphate buffer (pH 7.0). After addition of 10 mg/ml trehalose to the reaction mixture and stirring, the increase in absorbance at 340 nm was measured with a spectrophotometer.
# [8] = tested on: trehalase derived from Rhodococcus globerulus ATCC 14898; experiment: Example 4: inhibition of trehalase, calibration curve; details: pH 7.0, FIG. 8
# Procedure: as §1, with “2,” for “3,”, “a sample containing 1,5-anhydroglucitol at a varied concentration” for “1 mM test sugar shown in Table 4”, “increase” for “change”
# The same procedure as in Example 3 was repeated, except that trehalase derived from Rhodococcus globerulus prepared in Reference Example 3 was used.
# [9] = tested on: trehalase derived from Streptomyces aureofaciens ATCC 10762; experiment: Example 3: inhibition of trehalase, calibration curve; details: pH 7.0, FIG. 7
# Procedure: as §1, with “2,” for “3,”, “a sample containing 1,5-anhydroglucitol at a varied concentration” for “1 mM test sugar shown in Table 4”, “increase” for “change”
# [10] = tested on: trehalose phosphorylase derived from Catellatospora ferruginea FERM BP-4329; experiment: Example 2: inhibition of the synthesis activity of trehalose phosphorylase; details: imidazole buffer pH 7.0, FIG. 6
# Procedure: A reaction mixture (3 ml) was prepared by adding 10 mU/ml trehalose phosphorylase prepared in Reference Example 1, 50 mM glucose, 2 ml of a kit for the determination of inorganic phosphorus (Kyowa Medex Co., Ltd.), and a sample containing 1,5-anhydroglucitol at a varied concentration to 50 mM imidazole buffer (pH 7.0). After addition of 50 mM β-glucose-1-phosphate to the reaction mixture and stirring, the increase in absorbance at 550 nm was measured with a spectrophotometer.
compound,measurement,setting,value
O=C(CO)[C@@H](O)[C@H](O)[C@H](O)CO [D-Fructose],Inhibition (%),[1],0%
C[C@@H]1OC(O)[C@@H](O)[C@H](O)[C@@H]1O (stereo partly drawn) [L-Fucose],Inhibition (%),[1],0%
CCN(CC)C(=S)S [Diethyldithiocarbamic acid],Inhibition (%),[2]; compound at 1 mM,51.0%
"c1cnc2c(c1)ccc1cccnc12 [1,10-Phenanthroline]",Inhibition (%),[2]; compound at 1 mM,88.5%
same,Inhibition of the enzyme in words,[2]; summary of Table 3,inhibited
NO [Hydroxylamine],Inhibition (%),[2]; compound at 1 mM,81.2%
same,Inhibition of the enzyme in words,[2]; summary of Table 3,inhibited
O=S(=O)([O-])[O-].[Zn+2] [ZnSO4],Inhibition (%),[2]; compound at 1 mM,53.4%
"c1ccc(-c2ccccn2)nc1 [2,2'-Bipyridyl]",Inhibition (%),[2]; compound at 1 mM,60.0%
same,Inhibition of the enzyme in words,[2]; summary of Table 3,inhibited
OC[C@H]1OC(O)[C@@H](O)[C@@H](O)[C@@H]1O (stereo partly drawn) [D-Mannose],Inhibition (%),[1],0.5%
OC[C@H]1O[C@H](O[C@H]2O[C@H](CO)[C@@H](O)[C@H](O)[C@H]2O)[C@H](O)[C@@H](O)[C@@H]1O [Trehalose],Km,[3]; read-out: Km value of the enzyme,6.7 mM
same,Substrate specificity in words,[4]; conclusion from Table 1,specifically acts on
same,Relative activity (%),[4],100%
"O=C(O)CN(CCN(CC(=O)O)CC(=O)O)CC(=O)O [EDTA, ethylenediaminetetraacetic acid]",Inhibition (%),[2],67.6%
same,Inhibition of the enzyme in words,[2],inhibited
OC[C@H]1O[C@@](CO)(O[C@H]2O[C@H](CO)[C@@H](O)[C@H](O)[C@H]2O)[C@@H](O)[C@@H]1O [Sucrose],Inhibition (%),[5],0%
same,Inhibition (%),[1],0%
same,Relative activity (%),[4],0%
O=C(O)c1cc[c]([Hg][OH])cc1 [p-Mercuribenzoic acid],Inhibition (%),[2]; compound at 1 mM,94.7%
same,Inhibition of the enzyme in words,[2]; summary of Table 3,inhibited
OC1OC[C@@H](O)[C@H](O)[C@H]1O (stereo partly drawn) [D-Xylose],Inhibition (%),[1],0%
CC(=O)N[C@H]1C(O)O[C@H](CO)[C@@H](O)[C@@H]1O (stereo partly drawn) [N-Acetyl-D-glucosamine],Inhibition (%),[1],0%
C[C@H]1OC(O)[C@H](O)[C@@H](O)[C@H]1O (stereo partly drawn) [D-Fucose],Inhibition (%),[1],0%
OC[C@H]1O[C@@H](O[C@H]2[C@H](O)[C@@H](O)C(O)O[C@@H]2CO)[C@H](O)[C@@H](O)[C@H]1O (stereo partly drawn) [Lactose],Inhibition (%),[5],0%
same,Relative activity (%),[4],0%
"O=S(=O)([O-])[O-].[Ni+2] [NiSO4, nickel sulfate]",Inhibition (%),[2],62.1%
same,Inhibition of the enzyme in words,[2],inhibited
NC(=O)CI [Iodoacetamide],Inhibition (%),[2]; compound at 1 mM,83.6%
same,Inhibition of the enzyme in words,[2]; summary of Table 3,inhibited
[N-]=[N+]=[N-] [Sodium azide],Inhibition (%),[2]; compound at 1 mM,22.8%
OC[C@H]1O[C@H](O[C@H]2[C@H](O)[C@@H](O)[C@H](O)O[C@@H]2CO)[C@H](O)[C@@H](O)[C@@H]1O [Maltose],Inhibition (%),[5],0%
same,Inhibition (%),[1],0%
same,Relative activity (%),[4],0%
OC[C@H]1O[C@H](O[C@H]2C(O)O[C@H](CO)[C@@H](O)[C@@H]2O)[C@H](O)[C@@H](O)[C@@H]1O (stereo partly drawn) [Kojibiose],Inhibition (%),[5],0%
same,Relative activity (%),[4],0%
OC[C@H]1O[C@H](O[C@H]2[C@H](O)[C@@H](CO)OC(O)[C@@H]2O)[C@H](O)[C@@H](O)[C@@H]1O (stereo partly drawn) [Nigerose],Inhibition (%),[5],0%
same,Relative activity (%),[4],0%
N[C@H]1[C@@H](O[C@H]2O[C@H](CO)[C@@H](O)[C@H](O)[C@H]2O)O[C@H](CO)[C@@H](O)[C@@H]1O [Trehalosamine],Relative activity (%),[4],0.5%
N[C@H]1C(O)O[C@H](CO)[C@@H](O)[C@@H]1O (stereo partly drawn) [D-Glucosamine],Inhibition (%),[1],0%
[Cl-].[Cl-].[Co+2] [CoCl2],Inhibition (%),[2]; compound at 1 mM,20.4%
O=C1CCC(=O)N1Br [N-Bromosuccinimide],Inhibition (%),[2]; compound at 1 mM,23.4%
[Ba+2].[Cl-].[Cl-] [BaCl2],Inhibition (%),[2]; compound at 1 mM,40.7%
"OC[C@H]1OC[C@H](O)[C@@H](O)[C@@H]1O [1,5-Anhydroglucitol]",Ki,[3]; read-out: Ki value of the enzyme,330 µM
same,Relationship between inhibition rate and concentration,[6],good linear relationship
same,Inhibition (%),[5],80.7%
same,Relationship between inhibition rate and concentration,[7],good linear relationship
same,Relationship between inhibition rate and concentration,[8],good linear relationship
same,Relationship between inhibition rate and concentration,[9],good linear relationship
same,Specificity of inhibition in words,[1]; conclusion from Table 4,inhibited specifically
same,Inhibition (%),[1],45.0%
same,Relationship between inhibition rate and concentration,[10],good linear relationship
OC[C@H]1OC(O)[C@H](O)[C@@H](O)[C@H]1O (stereo partly drawn) [D-Galactose],Inhibition (%),[1],0.2%
CCN1C(=O)C=CC1=O [N-Ethylmaleimide],Inhibition (%),[2]; compound at 1 mM,21.9%
